Data set [1] concerns patients with advanced solid tumors. The data set is described as follows: Phase I 3+3 dose escalation: DLT, MTD and recommended dose. The note with it: in vivo, iv.
For data set [2] the following is noted: single agent in a phase I trial; cited from earlier work.
For data set [3] the following is noted: background statement, no reference given, cited from earlier work.

Turning to Cilengitide, the “recommended dose of cilengitide for subsequent study (recommended phase II dose)” value in data set [1] is listed as 2000 mg. For the same substance, in data set [2], the “maximum tolerated dose (MTD), single agent” value is listed as “not reached”. Moreover, in data set [3], the route of clearance result was “predominantly renally cleared” and the terminal half-life was 3 to 5 h. Further, the minimum washout in data set [3] (estimated) is 24 h.

Values taken from PMC9594487 (Cancer chemotherapy and pharmacology, 2017).
